{"source": "paper PMC9120017", "about": "“Inhibition mechanism of the chloride channel TMEM16A by the pore blocker 1PBC” (Nature Communications, 2022)", "target": "T1, mouse TMEM16A mutant Q649A (Mus musculus, UniProt Q8BHY3, Q649A)", "T1 construct": "expressed in transfected cells; host or cells: HEK293T", "T1 sequence (Q8BHY3 1-960 Q649A)": "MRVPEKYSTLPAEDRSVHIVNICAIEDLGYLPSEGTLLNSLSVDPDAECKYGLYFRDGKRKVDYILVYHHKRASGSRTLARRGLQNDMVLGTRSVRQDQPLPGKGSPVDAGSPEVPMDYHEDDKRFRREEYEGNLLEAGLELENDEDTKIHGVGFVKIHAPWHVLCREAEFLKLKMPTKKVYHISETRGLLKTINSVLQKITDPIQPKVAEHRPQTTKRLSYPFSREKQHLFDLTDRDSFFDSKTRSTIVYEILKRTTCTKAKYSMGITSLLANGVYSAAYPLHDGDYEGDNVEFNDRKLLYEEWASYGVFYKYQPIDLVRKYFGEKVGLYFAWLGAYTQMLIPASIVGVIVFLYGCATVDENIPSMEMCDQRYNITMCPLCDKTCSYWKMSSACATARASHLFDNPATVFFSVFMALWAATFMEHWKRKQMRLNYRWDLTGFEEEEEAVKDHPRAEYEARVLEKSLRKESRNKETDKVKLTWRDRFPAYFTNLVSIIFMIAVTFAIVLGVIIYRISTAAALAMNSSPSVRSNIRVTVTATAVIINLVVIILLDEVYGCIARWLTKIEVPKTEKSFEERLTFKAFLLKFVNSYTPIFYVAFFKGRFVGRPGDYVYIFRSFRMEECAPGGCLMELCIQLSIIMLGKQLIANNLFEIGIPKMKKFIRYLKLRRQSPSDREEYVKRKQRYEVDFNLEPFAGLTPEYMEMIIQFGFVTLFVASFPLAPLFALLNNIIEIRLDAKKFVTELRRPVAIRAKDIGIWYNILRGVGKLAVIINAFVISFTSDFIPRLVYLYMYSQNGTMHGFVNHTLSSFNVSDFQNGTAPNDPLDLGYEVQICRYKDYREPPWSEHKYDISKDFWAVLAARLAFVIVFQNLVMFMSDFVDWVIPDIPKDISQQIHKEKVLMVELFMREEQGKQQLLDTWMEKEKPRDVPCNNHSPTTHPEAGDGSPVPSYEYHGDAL", "assay": "Inside-out patch recording of 1PBC block, constitutively active mutant Q649A", "assay_type": "cell-based", "conditions": "for remaining activity at 3 µM: 3 µM 1PBC; for remaining activity at 10 µM: 10 µM 1PBC; for remaining activity at 30 µM: 30 µM 1PBC", "protocol": "HEK293T cells (ATCC CRL-1573) were maintained in Dulbecco’s modified Eagle’s medium (DMEM; Sigma-Aldrich) supplemented with 10 U ml^−1 penicillin, 0.1 mg ml^−1 streptomycin (Sigma-Aldrich), 2 mM L-glutamine (Sigma-Aldrich), and 10% FBS (Sigma-Aldrich) in a humidified atmosphere containing 5% CO2 at 37 °C. HEK293S GnTI^− cells (ATCC CRL-3022) were maintained in HyClone HyCell TransFx-H medium (GE Healthcare) supplemented with 10 U ml^−1 penicillin, 0.1 mg ml^−1 streptomycin, 4 mM L-glutamine, 0.15% poloxamer 188 (Sigma-Aldrich), and 1% FBS in an atmosphere containing 5% CO2 at 185 rpm at 37 °C. The ac splice variant of mouse TMEM16A (UniProt ID: Q8BHY3), mouse TMEM16B (UniProt ID: Q8CFW1), or mouse TMEM16F (UniProt ID: Q6P9J9) bearing a 3C cleavage site, a Venus YFP, a Myc tag, and a Streptavidin-binding peptide (SBP) downstream of the open reading frame in a modified pcDNA3.1 vector (Invitrogen) were used as described previously[21],[31]. Mutations were introduced using a modified QuikChange method[58] and were verified by sequencing.\nHEK293T cells were transfected with 3–4 μg DNA per 6 cm Petri dish using the calcium phosphate co-precipitation method and were used within 24–96 h after transfection. Recordings were performed on inside-out patches excised from HEK293T cells expressing the construct of interest. Patch pipettes were pulled from borosilicate glass capillaries (O.D. 1.5 mm, I.D. 0.86 mm, Sutter Instrument) and were fire-polished with a microforge (Narishige) before use. Pipette resistance was typically 3–8 MΩ when filled with the recording solutions detailed below. Seal resistance was typically 4 GΩ or higher. Voltage-clamp recordings were made using Axopatch 200B, Digidata 1550, and Clampex 10.7 (Molecular Devices). Analog signals were filtered with the in-built 4-pole Bessel filter at 10 kHz and were digitized at 20 kHz. Solution exchange was achieved using a gravity-fed system through a theta glass pipette mounted on an ultra-fast piezo-driven stepper (Siskiyou). […] All recordings were performed at 20 °C.\nA symmetrical ionic condition was used throughout. Stock solution with Ca^2+-EGTA contained 150 mM NaCl, 5.99 mM Ca(OH)2, 5 mM EGTA, and 10 mM HEPES at pH 7.40. Stock solution with EGTA contained 150 mM NaCl, 5 mM EGTA, and 10 mM HEPES at pH 7.40. Free Ca^2+ concentrations were adjusted by mixing the stock solutions at the required ratios calculated using the WEBMAXC program (http://web.stanford.edu/~cpatton/webmaxcS.htm). Patch pipettes were filled with the stock solution with Ca^2+-EGTA, which has a free Ca^2+ concentration of 1 mM. 1PBC (ChemBridge) stock was reconstituted in anhydrous DMSO (Sigma-Aldrich) at 100 mM and stored at −20 °C. Working solutions with 1PBC were prepared by serial dilution. Unless otherwise stated, experiments were performed at a saturating Ca^2+ concentration as shown in Supplementary Table 1 and the primary data were corrected for current rundown as described previously[21],[25].\nConcentration-response relations, obtained from the ratio of the I-V plots before and after the application of the blocker, were fitted to the Hill equation,1 I/Imax=1/1+IC50/[blocker]^h where I/Imax is the normalized current responses, IC50 defines the concentration at which inhibition is at its half-maximum, and h is the Hill coefficient.", "key": {"[1]": {"conditions": "0 mV, 2 µM Ca2+, read-out: I/Imax"}, "[2]": {"conditions": "0 mV, zero Ca2+, read-out: I/Imax"}}, "note": "Like-named read-outs stand apart in the source and are kept apart here.", "data": [{"smiles": "N#Cc1c(C(F)(F)F)cc(O)n2c1nc1ccccc12", "note": "[1PBC]", "values": [{"measurement": "I/Imax_+80mV", "setting": "0Ca, 3 μM 1PBC", "result": 0.8995}, {"measurement": "I/Imax_-80mV", "setting": "0Ca, 3 μM 1PBC", "result": 0.9942}, {"measurement": "I/Imax_+80mV", "setting": "0Ca, 10 μM 1PBC", "result": 0.7384}, {"measurement": "I/Imax_-80mV", "setting": "0Ca, 10 μM 1PBC", "result": 0.9446}, {"measurement": "I/Imax_+80mV", "setting": "0Ca, 30 μM 1PBC", "result": 0.483}, {"measurement": "I/Imax_-80mV", "setting": "0Ca, 30 μM 1PBC", "result": 0.815}, {"measurement": "I/Imax_+80mV", "setting": "0Ca, 100 μM 1PBC", "result": 0.2577}, {"measurement": "I/Imax_-80mV", "setting": "0Ca, 100 μM 1PBC", "result": 0.578}, {"measurement": "remaining activity at 1 µM", "setting": "1 µM 1PBC, 0 mV, 2 µM Ca2+, read-out: I/Imax", "result": 80, "unit": "%"}, {"measurement": "remaining activity at 3 µM", "setting": "[1]", "result": 57.9, "unit": "%"}, {"measurement": "remaining activity at 3 µM", "setting": "[2]", "result": 92.9, "unit": "%"}, {"measurement": "remaining activity at 10 µM", "setting": "[1]", "result": 31.4, "unit": "%"}, {"measurement": "remaining activity at 10 µM", "setting": "[2]", "result": 84.7, "unit": "%"}, {"measurement": "remaining activity at 30 µM", "setting": "[1]", "result": 13.7, "unit": "%"}, {"measurement": "remaining activity at 30 µM", "setting": "[2]", "result": 63.9, "unit": "%"}, {"measurement": "remaining activity at 100 µM", "setting": "100 µM 1PBC, 0 mV, zero Ca2+, read-out: I/Imax", "result": 39.9, "unit": "%"}, {"measurement": "I/Imax_+80mV", "setting": "Ca, 1 μM 1PBC", "result": 0.7635}, {"measurement": "I/Imax_-80mV", "setting": "Ca, 1 μM 1PBC", "result": 0.9086}, {"measurement": "I/Imax_+80mV", "setting": "Ca, 3 μM 1PBC", "result": 0.5067}, {"measurement": "I/Imax_-80mV", "setting": "Ca, 3 μM 1PBC", "result": 0.7508}, {"measurement": "I/Imax_+80mV", "setting": "Ca, 10 μM 1PBC", "result": 0.2578}, {"measurement": "I/Imax_-80mV", "setting": "Ca, 10 μM 1PBC", "result": 0.4875}, {"measurement": "I/Imax_+80mV", "setting": "Ca, 30 μM 1PBC", "result": 0.09866}, {"measurement": "I/Imax_-80mV", "setting": "Ca, 30 μM 1PBC", "result": 0.2347}, {"measurement": "Decrease in potency of block, Ca2+-free form vs Ca2+-bound state", "setting": "zero vs 2 µM Ca2+", "result": "about ten-fold"}]}]}
